Assay results taken from BigSolDB 2.1.
Where “and” joins values, the source holds several entries; their conditions need not be identical. Identical values can stand only once.

O=C1N2CN3C(=O)N4CN5C(=O)N6CN7C(=O)N8CN9C(=O)N%10CN%11C(=O)N%12CN1C1C2N2CN%13C(=O)N(CN%14C(=O)N(CN%15C(=O)N(CN%16C(=O)N(CN%17C(=O)N(CN1C2=O)C%12C%11%17)C%10C9%16)C8C7%15)C6C5%14)C4C3%13 (stereo unspecified)
in water
Conditions	solubility (mole fraction)
293.15 K	0.00231
303.15 K	0.0027
313.15 K	0.00336
323.15 K	0.00403
333.15 K	0.00481
343.15 K	0.00573
353.15 K	0.00662

C[C@@H](O)[C@H]1C(=O)N2C(C(=O)[O-])=C(SC3Cn4cnc[n+]4C3)[C@H](C)[C@H]12 (stereo partly specified)
in water
Conditions	solubility (mole fraction)
283.15 K	0.000323
288.15 K	0.000367
293.15 K	0.000413
298.15 K	0.000463
303.15 K	0.000521
308.15 K	0.000584
313.15 K	0.000649
318.15 K	0.000721
323.15 K	0.000807

C1=Cc2nc1c(-c1ccccc1)c1ccc([nH]1)c(-c1ccccc1)c1nc(c(-c3ccccc3)c3ccc([nH]3)c2-c2ccccc2)C=C1
in ethanol
Conditions	solubility (mole fraction)
303.2 K	1.76e-06
313.2 K	2.31e-06
323.2 K	3.06e-06
333.2 K	4.01e-06

Cc1ccccc1C(=O)O
in cyclohexane
Conditions	solubility (mole fraction)
295.45 K	0.0146
304.95 K	0.0279
316.65 K	0.0515
319.4 K	0.0615
325.2 K	0.0885
329.35 K	0.106
333.45 K	0.138
338.15 K	0.185

COc1cc(/C=C/C(=O)CC(=O)/C=C/c2ccc(O)c(OC)c2)ccc1O
in water
Conditions	solubility (mole fraction)
298.15 K	1.5e-07
303.15 K	1.7e-07
308.15 K	1.9e-07
313.15 K	2e-07
318.15 K	2.2e-07

COc1ccccc1OCC(O)COC(N)=O (stereo unspecified)
298.15 K
Conditions	solubility (mole fraction)
in 1,4-dioxane	0.00331
in ethanol	0.00436
in methanol	0.00425
in propylene glycol	0.00914
in water	0.000735

Conditions	solubility (mole fraction)
in PEG-400, 298.15 K	0.0262

C[C@@H]1CC[C@H]2[C@@H](C)C(=O)O[C@@H]3O[C@@]4(C)CC[C@@H]1[C@]32OO4
in ethanol
Conditions	solubility (mole fraction)
278.2 K	0.000998
286.2 K	0.00181
303.2 K	0.00297
313.2 K	0.00457
323.2 K	0.00801
343.2 K	0.0159

Nc1ccc(S(=O)(=O)Nc2ncccn2)cc1
Conditions	solubility (mole fraction)
in PEG-400, 298.15 K	0.0129
in PEG-400, 303.15 K	0.0132
in PEG-400, 308.15 K	0.0134
in PEG-400, 313.15 K	0.0136
in PEG-400, 318.15 K	0.0139

solubility (mole fraction)
Conditions	293.15 K	298.15 K	303.15 K	308.15 K	313.15 K
in n-propanol	3.88e-05	4.71e-05	5.87e-05	7.21e-05	9.13e-05
in propylene glycol	–	0.00047	–	–	–

COc1cc(/C=C/C(=O)O)cc(OC)c1O
solubility (mole fraction)
Conditions	298.15 K	303.15 K	308.15 K	313.15 K	318.15 K
in DMSO	0.147	0.149	0.152	0.155	0.158
in ethylene glycol	0.00586	0.0066	0.0075	0.00848	0.0094

O=C1C[C@@H](c2ccc(O)cc2)Oc2cc(O)cc(O)c21
298.15 K
Conditions	solubility (mole fraction)
in 1,4-dioxane	0.0669
in acetonitrile	0.0473
in water	1e-06

c1ccc2cc3ccccc3cc2c1
298.15 K
Conditions	solubility (mole fraction)
in 2,2,4-trimethylpentane	0.00107
in 2-butoxyethanol	0.00379
in 2-ethoxyethanol	0.00292
in 2-methoxyethanol	0.00221
in 2-pentanol	0.0008
in 2-propoxyethanol	0.00334
in MTBE	0.00305
in cyclohexane	0.00155
in isobutanol	0.00047
in isopentanol	0.000727
in isopropanol	0.000411
in methylcyclohexane	0.00165
in n-butanol	0.000801
in n-heptane	0.00157 and 0.00158
in n-hexane	0.00127
in n-octane	0.00184
in n-octanol	0.00216
in n-pentanol	0.0011
in n-propanol	0.000591
in sec-butanol	0.000585
in tert-amyl alcohol	0.00079
in tetrahydropyran	0.0102
